The source made the active and inactive calls. The calls are words filed in the database; no cut-off is given here.
Key:
Type in all cases: protein assay
[1] = target: T1, Alpha-1,2-mannosidase (BT_2111) (Bacteroides thetaiotaomicron) (UniProt Q8A5X5); assay: Activity of Bacteroides thetaiotaomicron GH92 alpha-mannosidase GH92 alpha-mannosidase 2111 assessed as mannose release at 1 mM after 16 hrs by HPLC relative to untreated control after 16 hrs by HPLC
T1 sequence (whole entry): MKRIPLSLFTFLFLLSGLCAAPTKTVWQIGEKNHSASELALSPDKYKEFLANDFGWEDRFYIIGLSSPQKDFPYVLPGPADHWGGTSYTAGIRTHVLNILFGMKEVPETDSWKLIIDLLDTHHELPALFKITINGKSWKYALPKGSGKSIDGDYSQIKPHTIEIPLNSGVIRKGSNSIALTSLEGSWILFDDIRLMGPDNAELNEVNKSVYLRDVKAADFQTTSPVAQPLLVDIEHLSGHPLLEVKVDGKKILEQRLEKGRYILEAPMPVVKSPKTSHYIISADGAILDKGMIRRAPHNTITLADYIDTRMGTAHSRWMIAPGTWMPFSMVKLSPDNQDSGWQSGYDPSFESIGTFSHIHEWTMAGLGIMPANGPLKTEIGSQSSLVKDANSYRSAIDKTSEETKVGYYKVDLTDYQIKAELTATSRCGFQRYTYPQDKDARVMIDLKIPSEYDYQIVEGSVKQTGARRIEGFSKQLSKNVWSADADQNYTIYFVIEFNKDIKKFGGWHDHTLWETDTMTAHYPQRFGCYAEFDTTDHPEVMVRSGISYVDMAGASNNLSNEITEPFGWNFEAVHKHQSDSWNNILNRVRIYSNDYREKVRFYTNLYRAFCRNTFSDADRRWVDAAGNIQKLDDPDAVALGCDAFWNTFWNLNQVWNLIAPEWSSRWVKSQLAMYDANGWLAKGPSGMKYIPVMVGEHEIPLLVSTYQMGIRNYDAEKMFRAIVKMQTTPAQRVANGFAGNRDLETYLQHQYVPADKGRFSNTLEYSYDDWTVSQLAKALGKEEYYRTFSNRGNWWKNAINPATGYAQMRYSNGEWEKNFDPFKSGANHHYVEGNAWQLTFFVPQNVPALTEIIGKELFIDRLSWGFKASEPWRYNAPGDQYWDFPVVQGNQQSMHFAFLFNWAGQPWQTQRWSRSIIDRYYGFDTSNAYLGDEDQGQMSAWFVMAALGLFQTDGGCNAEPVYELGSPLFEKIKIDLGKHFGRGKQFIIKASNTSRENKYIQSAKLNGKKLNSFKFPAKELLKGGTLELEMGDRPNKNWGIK

[2] = target: T2, Alpha-1,2-mannosidase (BT_2199) (Bacteroides thetaiotaomicron) (UniProt Q8A5N9); assay: Activity of Bacteroides thetaiotaomicron GH92 alpha-mannosidase 2199 assessed as recovery of enzyme activity at 1 mM in presence of 7 mM Be(2+) ions and in presence of 5 mM EGTA in 100 mM pH 7 MOPS buffer relative to enzyme activity in presence of calcium
T2 sequence (whole entry): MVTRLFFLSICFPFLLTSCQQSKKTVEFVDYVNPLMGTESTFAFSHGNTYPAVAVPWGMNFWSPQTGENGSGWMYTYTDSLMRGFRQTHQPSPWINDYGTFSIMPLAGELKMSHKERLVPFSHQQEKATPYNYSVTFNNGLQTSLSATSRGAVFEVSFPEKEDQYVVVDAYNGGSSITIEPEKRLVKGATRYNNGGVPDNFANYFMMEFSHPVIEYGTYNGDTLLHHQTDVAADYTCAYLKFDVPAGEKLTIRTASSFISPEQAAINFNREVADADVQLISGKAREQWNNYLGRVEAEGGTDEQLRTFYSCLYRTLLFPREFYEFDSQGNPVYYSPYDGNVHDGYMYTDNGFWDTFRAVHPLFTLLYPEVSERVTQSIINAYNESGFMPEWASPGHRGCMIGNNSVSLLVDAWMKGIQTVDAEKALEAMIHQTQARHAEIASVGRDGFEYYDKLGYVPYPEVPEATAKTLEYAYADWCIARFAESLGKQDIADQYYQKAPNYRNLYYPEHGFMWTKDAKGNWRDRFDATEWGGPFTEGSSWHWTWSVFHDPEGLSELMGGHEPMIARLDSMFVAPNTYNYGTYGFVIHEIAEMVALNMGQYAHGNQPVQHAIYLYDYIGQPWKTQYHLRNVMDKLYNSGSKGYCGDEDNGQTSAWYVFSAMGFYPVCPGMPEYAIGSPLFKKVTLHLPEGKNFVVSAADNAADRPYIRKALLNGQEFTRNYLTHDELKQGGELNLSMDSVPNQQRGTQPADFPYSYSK

[3] = target: T3, Alpha-1,2-mannosidase (BT_3990) (Bacteroides thetaiotaomicron) (UniProt Q8A0N1); assay: Activity of Bacteroides thetaiotaomicron GH92 alpha-mannosidase 3990 assessed as recovery of enzyme activity at 1 mM in presence of 7 mM Zn(2+) ions and in presence of 5 mM EDTA in 100 mM pH 7 MOPS buffer relative to enzyme activity in presence of calcium
T3 sequence (whole entry): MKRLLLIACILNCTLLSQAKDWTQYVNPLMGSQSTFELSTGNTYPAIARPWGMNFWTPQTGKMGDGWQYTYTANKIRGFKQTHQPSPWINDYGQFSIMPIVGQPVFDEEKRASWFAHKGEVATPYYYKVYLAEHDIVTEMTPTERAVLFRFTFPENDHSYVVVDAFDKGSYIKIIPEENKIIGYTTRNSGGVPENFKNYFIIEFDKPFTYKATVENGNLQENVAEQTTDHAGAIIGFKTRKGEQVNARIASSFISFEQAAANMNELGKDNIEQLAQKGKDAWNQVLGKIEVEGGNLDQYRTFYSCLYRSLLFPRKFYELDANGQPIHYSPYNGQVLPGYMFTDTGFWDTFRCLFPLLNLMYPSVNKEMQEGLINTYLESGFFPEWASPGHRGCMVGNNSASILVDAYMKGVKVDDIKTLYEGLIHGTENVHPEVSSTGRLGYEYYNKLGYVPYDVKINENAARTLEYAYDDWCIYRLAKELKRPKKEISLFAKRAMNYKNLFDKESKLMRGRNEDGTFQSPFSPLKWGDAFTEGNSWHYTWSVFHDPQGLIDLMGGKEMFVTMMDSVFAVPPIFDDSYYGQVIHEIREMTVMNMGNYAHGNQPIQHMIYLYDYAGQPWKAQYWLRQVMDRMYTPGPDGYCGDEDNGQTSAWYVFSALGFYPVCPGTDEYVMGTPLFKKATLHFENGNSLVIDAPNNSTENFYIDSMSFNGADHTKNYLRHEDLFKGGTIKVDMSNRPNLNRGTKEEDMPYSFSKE

[4] = target: T3, Alpha-1,2-mannosidase (BT_3990) (Bacteroides thetaiotaomicron); assay: Activity of Bacteroides thetaiotaomicron GH92 alpha-mannosidase 3990 assessed as recovery of enzyme activity at 1 mM in presence of 7 mM Sc(3+) ions and in presence of 5 mM EDTA in 100 mM pH 7 MOPS buffer relative to enzyme activity in presence of calcium

Row | Activity [1] | Activity [2] | Activity [3] | Activity [4] | Compound
1 | inactive | – | – | – | OC[C@H]1O[C@H](O[C@H]2[C@@H](O)[C@H](O)[C@@H](CO)O[C@@H]2O)[C@@H](O)[C@@H](O)[C@@H]1O
2 | inactive | – | – | – | OC[C@H]1O[C@H](O[C@@H]2[C@H](O)[C@@H](O)O[C@H](CO)[C@H]2O)[C@@H](O)[C@@H](O)[C@@H]1O
3 | inactive | – | – | – | OC[C@H]1O[C@H](O[C@H]2[C@H](O)[C@H](O)[C@@H](O)O[C@@H]2CO)[C@@H](O)[C@@H](O)[C@@H]1O
4 | – | 0% | 0% | 0% | O=[N+]([O-])c1ccc(O[C@H]2O[C@H](CO)[C@@H](O)[C@H](O)[C@@H]2O)cc1
5 | inactive | – | – | – | OC[C@H]1O[C@H](OC[C@H]2O[C@H](O)[C@@H](O)[C@@H](O)[C@@H]2O)[C@@H](O)[C@@H](O)[C@@H]1O
